*1 amine or outer side, *2 acyl side, *3 side chain or, on linkers, in order; H or OH if unused. Where a SMILES comes first, the peptide text is derived from it. Where no end group is shown, it is not given here. Cysteamide = C(CS[*:3])N[*:1]
What was measured:
[1] = system: cardiac cell line H9C2; assay: Nuclear labeling of cells by fluorescein ODN-peptide conjugate; assay type: cell-based
Description: (§1) For the second ODN, the situation is clearer. This ODN conjugated 3′ with fluorescein and containing an SH group in 5′ for localization reasons has the sequence 5′-[…]-3′ (SEQ ID NO:31) and corresponds to the AS-βCOM antisense sequence complementary to conserved sequence region found in every mRNA encoding β subunit of Ca^2+ channels. After 5 min incubation at 37° C., more than 90% of the cells (cardiac cell line H9C2) were labeled in the nucleus while only 25% of the cells were labeled after 3 hours incubation when using the free ODN.

[2] = system: β subunit of Ca^2+ channels; assay: Ba2+ current density of treated H9C2 cells; assay type: cell-based; details: all labeled cells
Description: as §1

[3] = system: HS-68, NIH 3T3, C2C12, COS-7 and CEM-SS cell lines; assay: Cytotoxicity of MPG and MPG/DNA complex, MTT colorimetric assay; assay type: cell-based
Description: In order to generalize the use of MPG as an efficient delivery agent, the degree of cytotoxicity of MPG and of the MPG/DNA complex (charge ratio 5:1) were evaluated in several cell lines, including HS-68 and NIH 3T3 fibroblasts, C212 myoblasts, COS-7 kidney cells and human CEM-SS lymphoblasts. […] At much higher concentrations of 0.1 and 1 mM MPG, however, cell viability decreased by ˜25 and 60%, respectively.
The cytotoxicity of both MPG and MPG/plasmid (pRL-SV40 plasmid encoding reporter R.reniformis luciferase) complexes were investigated in the cell lines mentioned above. Cells grown in 35 mm diameter dishes to 75% confluency (0.5-1×10^6 cells per dish) were incubated with 0.1 μM to 1 mM MPG alone or complexed with DNA in a 5:1 ratio, in 1 ml DMEM for 3 h, after which 10% serum was added. Cell culture medium with MPG or MPG/plasmid was not changed, and cell proliferation was measured over 4 days. Cytotoxicity was evaluated by the MTT colorimetric assay, after removing cell culture medium and replacing it with PBS containing 5 mg/ml of MTT (Mosmann, T. (1983) J. Immunol. Methods, 65: 55-63). Results shown correspond to the averages of four separate experiments.
HS-68, NIH 3T3, C2C12, cos-7 and CEM-SS cell lines were incubated with 0.1 μM to 1 mM MPG alone (A) and with MPG complexed with DNA (pRL-SV40 plasmid encoding R.reniformis luciferase) in a peptide/DNA ratio of 5:1 (B), at 37° C. in DMEM supplemented with 10% FCS. The cytotoxicity of MPG alone and of MPG/DNA complexes was evaluated in MTT colorimetric assays and the results were expressed as percentages of dye reduction in cell lines incubated without MPG. The results correspond to averages of four separate experiments.

[4] = physiological conditions; cited from earlier work
[5] = system: HS68, NIH 3T3 and 293 cell lines; assay: Toxicity of Pep-2 in cell lines (MTT staining); details: concentration of 1 mM
[6] = system: mammalian fibroblasts, NIH 3T3 fibroblasts or murine L1210 lymphocytes; assay: Cellular localization of lucifer yellow-linked peptides; assay type: cell-based; details: 3 min incubation at 10 μM
[7] = Transmembrane ionic channel formation; set-up: species or system Xenopus laevis; details: voltage-triggered insertion
Source text: They were characterized on Xenopus laevis oocyte plasma membranes and confirmed on planar lipid bilayers proving thus that channel formation is a true property of the peptide (FIG. 11). The insertion of the peptide in the membrane is voltage-triggered and the channel thus formed are selective for monovalent cations.

[8] = system: Acheloplasma laidlawii and Spiroplasma melliferum; details: concentrations much lower than minimal inhibitory concentrations; cited from earlier work
[9] = phosphatidylcholine or phosphatidylserine monolayers; cited from earlier work

Compound: 5′-ACCAGCCTTCCGATCCACCAGTCATT-3′ (DNA, backbone not given here; 3' fluorescein conjugate, 5' thiol group, peptide conjugated) [second ODN]
- cells labeled in the nucleus ([1]; ODN conjugated to peptide, 5 min incubation at 37° C.): more than 90%
- cells labeled ([1]; free ODN, 3 hours incubation): 25%
- reduction of Ba^2+ current density [2]: ≈ 7 fold

Compound: CSCC[C@H](NC(=O)[C@@H](NC(=O)[C@H](CO)NC(=O)CNC(=O)[C@H](C)NC(=O)[C@H](C)NC(=O)CNC(=O)[C@H](CC(C)C)NC(=O)[C@H](Cc1ccccc1)NC(=O)CNC(=O)[C@H](CC(C)C)NC(=O)[C@H](Cc1ccccc1)NC(=O)[C@H](CC(C)C)NC(=O)[C@H](C)NC(=O)CNC(C)=O)[C@@H](C)O)C(=O)NCC(=O)N[C@@H](C)C(=O)N[C@@H](Cc1c[nH]c2ccccc12)C(=O)N[C@@H](CO)C(=O)N[C@@H](CCC(N)=O)C(=O)N1CCC[C@H]1C(=O)N[C@@H](CCCCN)C(=O)N[C@@H](CO)C(=O)N[C@@H](CCCCN)C(=O)N[C@@H](CCCNC(=N)N)C(=O)N[C@@H](CCCCN)C(=O)N[C@H](C(=O)NCCS)C(C)C [MPG] (Ac-GALFLGFLGAAGSTMGAWSQPKSKRKV-Cysteamide)
- decrease of cell viability ([3]; MPG alone 0.1 mM): ~25%
- decrease of cell viability ([3]; MPG alone 1 mM): ~60%
- cytotoxic effects ([3]; MPG alone up to 10 μM, 48 h at 37° C.): did not induce any cytotoxic effects
- cytotoxicity ([3]; MPG complexed with pRL-SV40 at 5:1 ratio, 0.1 mM MPG): no cytotoxicity could be observed
- decrease of cell viability ([3]; MPG complexed with pRL-SV40 at 5:1 ratio, 1 mM MPG): ~40%
- solubility [4]: highly soluble

Compound: CC(=O)N[C@@H](Cc1ccc(O)cc1)C(=O)NCC(=O)N[C@@H](Cc1ccccc1)C(=O)N[C@@H](CCCCN)C(=O)N[C@@H](CCCCN)C(=O)N[C@@H](CCCNC(=N)N)C(=O)N[C@@H](CCCNC(=N)N)C(=O)N[C@@H](Cc1c[nH]c2ccccc12)C(=O)N[C@@H](CO)C(=O)N[C@@H](CCC(N)=O)C(=O)N1CCC[C@H]1C(=O)N[C@@H](CCCCN)C(=O)N[C@@H](CCC(=O)O)C(=O)N[C@H](C(=O)N[C@@H](Cc1c[nH]c2ccccc12)C(=O)N[C@@H](CCC(=O)O)C(=O)N[C@H](C(=O)N[C@@H](Cc1c[nH]c2ccccc12)C(=O)N[C@@H](Cc1c[nH]c2ccccc12)C(=O)N[C@H](C(=O)N[C@@H](CCC(=O)O)C(=O)NCCS)[C@@H](C)O)[C@@H](C)O)[C@@H](C)O [Pep-1-cya] (Ac-YGFKKRRWSQPKETWETWWTE-Cysteamide)
- decrease of cell viability [5]: about 10%

Compound: MGLGLHLLVLAAALQGAKKKRKV (Ac-MGLGLHLLVLAAALQGAKKKRKV; not fully specified (C-terminus); printed as MGLGLHLLVLAAALQGAKKKRKV) [[2]]
- final localization of lucifer yellow-linked peptide [6]: localize in the nuclei of the cells
- channel formation [7]: induce formation of transmembrane ionic channels
- effect on membrane potential and transmembrane pH gradient [8]: decrease
- surface pressure increase [9]: ~15 mN/m
